Biological target: T1, wild-type HIV-1 protease (Human immunodeficiency virus type 1 group M subtype B, UniProt P04585)
T1 construct: Escherichia coli expressed wild-type HIV-1 protease protein
Assay: Assay for Inhibition of Microbial Expressed HIV Protease (peptide substrate cleavage, LC-MS/MS readout)
Assay type: biochemical
Conditions: E. coli expressed wild-type HIV-1 protease, mean of at least two independent experiments, read-out: HIV Pr Enzyme HIV1 PR IC50
Description: Assay for Inhibition of Microbial Expressed HIV Protease
Inhibition of Escherichia coli expressed wild-type HIV-1 protease protein was carried out with a peptide substrate [Val-Ser-Gln-Asn-(βnaphtyl)Ala-Pro-Ile-Val]. The inhibitor compound was preincubated with HIV-1 protease enzyme in assay buffer (50 mM sodium acetate, pH 5.5, 100 mM NaCl, and 0.1% BSA) for 30 minutes at room temperature. Peptide substrate was added to 400 μM in a total volume of 20 μL containing […] HIV-1 protease (final) after which the reaction was incubated for 1 hour at 30° C. […] The extent of inhibition of the reaction was determined from the peak area of the products.
Data shown in the table reflects the mean of at least two independent experiments.

CC(C)CC[C@]1(c2ccc(F)cc2)NC(=N)N(C(CCCc2ccccc2)c2ccc(C(F)(F)F)c(C(=O)N3Cc4nccnc4C3)c2)C1=O (stereo partly drawn) [Compound 2, (5R)-3-{1-[3-(5,7-dihydro-6H-pyrrolo[3,4-b]pyrazin-6-ylcarbonyl)-4-(trifluoro-methyl)phenyl]-4-phenylbutyl}-5-(4-fluorophenyl)-2-imino-5-(3-methylbutyl)imidazolidin-4-one]
IC50: 0.14 nM

CN1CCN(C(=O)c2cc(CN3C(=N)NC(c4ccc(F)cc4)(c4ccc(F)cc4)C3=O)ccc2C(F)(F)F)CC1=O [Compound 157, 4-{[5-{[4,4-bis(4-fluorophenyl)-2-imino-5-oxoimidazolidin-1-yl]methyl}-2-(trifluoromethyl)phenyl]carbonyl}-1-methylpiperazin-2-one]
IC50: 14.1 nM

N=C1N[C@](CCCC(F)(F)F)(c2ccc(F)cc2)C(=O)N1Cc1ccc(C(F)(F)F)c(C(=O)N2Cc3cnc(-c4cnn(CCO)c4)nc3C2)c1 [Compound 12, (5R)-5-(4-fluorophenyl)-3-[3-({2-[1-(2-hydroxyethyl)-1H-pyrazol-4-yl]-5,7-dihydro-6H-pyrrolo[3,4-d]pyrimidin-6-yl}carbonyl)-4-(trifluoromethyl)benzyl]-2-imino-5-(4,4,4-trifluorobutyl)imidazolidin-4-one]
IC50: 1.32 nM

CC(C)CC1(c2ccccc2)NC(=N)N(Cc2cccc(C(=O)N3CCN(C(=O)c4ccco4)CC3)c2)C1=O (centres unmarked) [Compound 268, 3-(3-{[4-(furan-2-ylcarbonyl)piperazin-1-yl]carbonyl}benzyl)-2-imino-5-(2-methylpropyl)-5-phenylimidazolidin-4-one]
IC50: 26.8 nM

CC(C)CC[C@]1(c2ccc(F)cc2)NC(=N)N(C(Cc2ccccc2)c2ccc(C(F)(F)F)c(C(=O)N3Cc4nccnc4C3)c2)C1=O (stereo partly drawn) [Compound 4, (5R)-3-{1-[3-(5,7-dihydro-6H-pyrrolo[3,4-b]pyrazin-6-ylcarbonyl)-4-(trifluoromethyl)-phenyl]-2-phenylethyl}-5-(4-fluorophenyl)-2-imino-5-(3-methylbutyl)-imidazolidin-4-one]
IC50: 0.2 nM

N=C1NC(c2ccc(F)cc2)(c2ccc(F)cc2)C(=O)N1Cc1cncc(C(=O)N2CCN(C(=O)OCCOCc3ccccc3)CC2)c1 [Compound 391, 2-(benzyloxy)ethyl 4-[(5-{[4,4-bis(4-fluorophenyl)-2-imino-5-oxoimidazolidin-1-yl]methyl}pyridin-3-yl)carbonyl]piperazine-1-carboxylate]
IC50: 13.6 nM

CC(C)Cn1cc(-c2ncc3c(n2)CN(C(=O)c2cc(CN4C(=N)N[C@](CCCC(F)(F)F)(c5ccc(F)cc5)C4=O)ccc2C(F)(F)F)C3)cn1 [Compound 46, (5R)-5-(4-fluorophenyl)-2-imino-3-[3-({2-[1-(2-methylpropyl)-1H-pyrazol-4-yl]-5,7-dihydro-6H-pyrrolo[3,4-d]pyrimidin-6-yl}carbonyl)-4-(trifluoromethyl)-benzyl]-5-(4,4,4-trifluorobutyl)-imidazolidin-4-one]
IC50: 4.82 nM

COc1ccc(CN2C(=N)NC(c3ccccc3)(c3ccccc3)C2=O)cc1C(=O)N1Cc2cncnc2C1 [Compound 387, 3-[3-(5,7-dihydro-6H-pyrrolo[3,4-d]pyrimidin-6-ylcarbonyl)-4-methoxybenzyl]-2-imino-5,5-diphenylimidazolidin-4-one]
IC50: 32.2 nM

N=C1N[C@](CCC2CC2)(c2ccc(F)cc2)C(=O)N1C(CCc1ccccc1)c1ccc(C(F)(F)F)c(C(=O)N2CCn3c(nnc3C(F)(F)F)C2)c1 (stereo partly drawn) [Compound 37, (5R)-5-(2-cyclopropylethyl)-5-(4-fluorophenyl)-2-imino-3-{3-phenyl-1-[4-(trifluoromethyl)-3-{[3-(trifluoromethyl)-5,6-dihydro-[1,2,4]triazolo[4,3-a]pyrazin-7(8H)-yl]carbonyl}phenyl]propyl} imidazolidin-4-one]
IC50: 3.89 nM

CNC(=O)c1nc2n(c1Cl)CCN(C(=O)c1cccc(CN3C(=N)NC(c4ccccc4)(c4ccccc4)C3=O)c1)C2 [Compound 251, 3-chloro-7-({3-[(2-imino-5-oxo-4,4-diphenylimidazolidin-1-yl)methyl]phenyl}carbonyl)-N-methyl-5,6,7,8-tetrahydroimidazo[1,2-a]pyrazine-2-carboxamide]
IC50: 19.2 nM

Cc1nnc(-c2cccc(-c3ncc4c(n3)CN(C(=O)c3cc(CN5C(=N)N[C@](CCCC(F)(F)F)(c6ccc(F)cc6)C5=O)ccc3C(F)(F)F)C4)c2)o1 [Compound 48, (5R)-5-(4-fluorophenyl)-2-imino-3-[3-({2-[3-(5-methyl-1,3,4-oxadiazol-2-yl)phenyl]-5,7-dihydro-6H-pyrrolo[3,4-d]pyrimidin-6-yl}carbonyl)-4-(trifluoromethyl)-benzyl]-5-(4,4,4-trifluorobutyl)-imidazolidin-4-one]
IC50: 5.26 nM

N=C1NC(CCC2CC2)(c2ccc(-c3cccnc3)cc2)C(=O)N1Cc1ccc(C(F)(F)F)c(C(=O)N2Cc3nccnc3C2)c1 (centres unmarked) [Compound 76, 5-(2-cyclopropylethyl)-3-[3-(5,7-dihydro-6H-pyrrolo[3,4-b]pyrazin-6-ylcarbonyl)-4-(trifluoromethyl-)benzyl]-2-imino-5-(4-pyridin-3-ylphenyl) imidazolidin-4-one]
IC50: 10.4 nM

C=CCOC(=O)N1CCN(C(=O)c2cc(CN3C(=N)N[C@](CCCC(F)(F)F)(c4ccc(F)cc4)C3=O)ccc2C(F)(F)F)CC1 [Compound 102, prop-2-en-1-yl 4-{[5-{[(4R)-4-(4-fluorophenyl)-2-imino-5-oxo-4-(4,4,4-trifluorobutyl)imidazolidin-1-yl]methyl}-2-(trifluoromethyl)-phenyl]carbonyl} piperazine-1-carboxylate]
IC50: 23.2 nM

COC(=O)Nc1ncc2c(n1)CN(C(=O)c1cccc(CN3C(=N)NC(c4ccc(F)cc4)(c4ccc(F)cc4)C3=O)c1)C2 [Compound 189, methyl {6-[(3-{[4,4-bis(4-fluorophenyl)-2-imino-5-oxoimidazolidin-1-yl]methyl}phenyl)carbonyl]-6,7-dihydro-5H-pyrrolo[3,4-d]pyrimidin-2-yl}carbamate]
IC50: 3.83 nM

N=C1N[C@](CCCC(F)(F)F)(c2ccc(F)cc2)C(=O)N1[C@@H]1CCCc2ccc(C(=O)N3Cc4nccnc4C3)cc21 [Compound 116, (5R)-3-[(1R)-7-(5,7-dihydro-6H-pyrrolo[3,4-b]pyrazin-6-ylcarbonyl)-1,2,3,4-tetrahydro-naphthalen-1-yl]-5-(4-fluoro-phenyl)-2-imino-5-(4,4,4-trifluorobutyl)imidazolidin-4-one]
IC50: 37.8 nM

N=C1NC(c2ccc(F)cc2)(c2ccc(F)cc2)C(=O)N1Cc1ccc(Cl)c(C(=O)N2CCC(F)(F)C2)c1 [Compound 389, 3-{4-chloro-3-[(3,3-difluoropyrrolidin-1-yl)carbonyl]benzyl}-5,5-bis(4-fluorophenyl)-2-iminoimidazolidin-4-one]
IC50: 98.5 nM

COC(=O)N1CCN(C(=O)c2cccc(CN3C(=N)NC(CCC(C)C)(c4ccccc4)C3=O)c2)CC1 (centres unmarked) [Compound 255, methyl 4-[(3-{[2-imino-4-(3-methylbutyl)-5-oxo-4-phenylimidazolidin-1-yl]methyl}phenyl)carbonyl] piperazine-1-carboxylate]
IC50: 20.9 nM

N=C1NC(c2ccccc2)(c2ccccc2)C(=O)N1Cc1cccc(C(=O)N2CCN(c3ccccc3)CC2)c1 [Compound 324, 2-imino-5,5-diphenyl-3-{3-[(4-phenylpiperazin-1-yl)carbonyl]benzyl} imidazolidin-4-one]
IC50: 57.7 nM

N=C1N[C@](CCCC(F)(F)F)(c2ccc(F)cc2)C(=O)N1Cc1ccc(C(F)(F)F)c(C(=O)N2Cc3cnc(-c4ccc(-n5cccn5)nc4)nc3C2)c1 [Compound 89, (5R)-5-(4-fluorophenyl)-2-imino-3-[3-({2-[6-(1H-pyrazol-1-yl)pyridin-3-yl]-5,7-dihydro-6H-pyrrolo[3,4-d]pyrimidin-6-yl}carbonyl)-4-(trifluoromethyl)benzyl]-5-(4,4,4-trifluorobutyl)imidazolidin-4-one]
IC50: 15.7 nM

COC(=O)Nc1ncc2c(n1)CN(C(=O)c1ccc3c(c1)[C@H](N1C(=N)N[C@](CCC(C)C)(c4ccccc4)C1=O)CC3)C2 [Compound 96, methyl [6-({(3R)-3-[(4R)-2-imino-4-(3-methylbutyl)-5-oxo-4-phenylimidazolidin-1-yl]-2,3-dihydro-1H-inden-5-yl}carbonyl)-6,7-dihydro-5H-pyrrolo[3,4-d]pyrimidin-2-yl]carbamate]
IC50: 20.4 nM

CCCC1(c2ccccc2)NC(=N)N(Cc2cccc(C(=O)N3CCN(c4ncccn4)CC3)c2)C1=O (centres unmarked) [Compound 320, 2-imino-5-phenyl-5-propyl-3-{3-[(4-pyrimidin-2-ylpiperazin-1-yl)carbonyl]benzyl} imidazolidin-4-one]
IC50: 56.7 nM

N=C1NC(CCC2CC2)(c2ccc(C(F)(F)F)cc2)C(=O)N1Cc1ccc(C(F)(F)F)c(C(=O)N2CCn3c(nnc3C(F)(F)F)C2)c1 (centres unmarked) [Compound 125, 5-(2-cyclopropylethyl)-2-imino-5-[4-(trifluoromethyl)phenyl]-3-[4-(trifluoromethyl)-3-{[3-(trifluoromethyl)-5,6-dihydro-[1,2,4]triazolo[4,3-a]pyrazin-7(8H)-yl]carbonyl}benzyl] imidazolidin-4-one]
IC50: 57.2 nM

CC(C)CCC1(c2ccc(F)cc2)NC(=N)N(Cc2ccc(C(F)(F)F)c(C(=O)N3Cc4nc(-c5ccccc5)oc4C3)c2)C1=O (centres unmarked) [Compound 158, 5-(4-fluorophenyl)-2-imino-5-(3-methylbutyl)-3-{3-[(2-phenyl-4,6-dihydro-5H-pyrrolo[3,4-d][1,3]oxazol-5-yl)carbonyl]-4-(trifluoromethyl)benzyl} imidazolidin-4-one]
IC50: 15.8 nM

— US20200069691A1, “HETEROCYCLIC COMPOUNDS AS HIV PROTEASE INHIBITORS” (Merck Sharp & Dohme Corp., priority 2016, published 2020)
